Legend:
[1] = tested on: glucose-6-phosphatase translocase mRNA; assay: Target mRNA reduction in liver of db/db mice, dose-response study; type: in vivo, mouse
Procedure: Seven-week old male C57B1/6J-Lepr db/db mice (Jackson Laboratory, Bar Harbor, Me.) were fed a diet with a fat content of about 14% (Formulab Diet 5008) and were subcutaneously injected with ISIS 116847 (SEQ ID NO: 143), ISIS 141923 (SEQ ID NO: 144), or ISIS 148985 (SEQ ID NO: 118), an antisense inhibitor of glucose-6-phosphatase translocase, at a dose of 25 mg/kg two times per week for 4 weeks. […] Saline-injected animals served as controls. 48 hours after the eighth and final dose was administered, mice were sacrificed and target levels were evaluated in liver. RNA isolation and target mRNA expression level quantitation were performed as described by other examples herein.
Glucose-6-phosphatase translocase mRNA levels in db/db mouse livers were measured at the end of study using RIBOGREEN™ RNA quantification reagent (Molecular Probes, Inc. Eugene, Oreg.) as taught in previous examples above. Data are expressed as the average of 5 animals per treatment group. […] Target mRNA levels were reduced by approximately 21% by ISIS 148985. […] Therefore, antisense inhibitors of glucose-6-phosphatase translocase reduced target mRNA levels in the liver of db/db mice, and ISIS 149008 did so in a dose-dependent manner.

[2] = mouse, in vivo, sc, 25 mg/kg
Procedure: Seven-week old male C57B1/6J-Lepr db/db mice (Jackson Laboratory, Bar Harbor, Me.) were fed a diet with a fat content of about 14% and were subcutaneously injected with one or more of the oligomeric compounds of the invention or a control compound at a dose of 25 mg/kg two times per week. Glucose-6-phosphatase translocase antisense oligonucleotides used were ISIS 148985 (SEQ ID NO: 118) and ISIS 149008 (SEQ ID NO: 141). ISIS 116847 (SEQ ID NO: 143), targeted to mouse PTEN, was used as a positive control. The scrambled control oligonucleotide ISIS 141923 ([…], incorporated herein as SEQ ID NO: 144) served as a negative control along with saline-injected animals. ISIS 141923 and ISIS 116847 are chimeric oligonucleotides (“gapmers”) 20 nucleotides in length, composed of a central “gap” region consisting of 10 2′-deoxynucleotides, which is flanked on both sides (5′ and 3′) by five-nucleotide “wings”. The wings are composed of 2′-O-(2-methoxyethyl) nucleotides, also known as 2′-MOE nucleotides. The internucleoside (backbone) linkages are phosphorothioate throughout the oligonucleotide. All cytidine residues are 5-methylcytidines.
Patients with the human glycogen storage disease type 1b have mutations in the glucose-6-phosphatase translocase gene. Because one manifestation of these mutations is a defect in hepatic glycogen […] leading to glycogen accumulation in the liver, the db/db mice were further evaluated at the end of the treatment period for liver glycogen stores. Tissue glycogen was measured using the Glucose Trinder Reagent (Sigma-Aldrich, St. Louis, Mo.). Results are presented as the average level from 5 animals per treatment. Glycogen levels of mice treated with saline alone were approximately 46 mg/g of tissue. Levels in mice treated with the positive control antisense compound ISIS 116847 had decreased levels of approximately 30 mg/g. Mice treated with the scrambled control compound ISIS 141923 had levels more similar to saline control of approximately 39 mg/g. Mice treated with ISIS 149008 or 148985, the antisense inhibitors of glucose-6-phosphatase translocase, had glycogen levels of approximately 38 mg/g and 37 mg/g, respectively.

[3] = tested on: mouse glucose-6-phosphatase translocase mRNA; assay: Antisense inhibition of mouse glucose-6-phosphatase translocase mRNA in primary mouse hepatocytes, 50 nM (Table 5); type: cell-based; settings: 50 nM oligonucleotide, mRNA by real-time PCR, normalized with RIBOGREEN
[4] = 25 mg/kg twice weekly for 4 weeks

Sequence	Glucose-6-phosphatase translocase mRNA levels in liver, reduction compared to saline [1, 4]	Liver glycogen levels [2]	% Inhib [3]	% Inhib ([3]; listed as 148985) [%]	Glucose-6-phosphatase translocase mRNA levels in liver, reduction compared to saline ([1]; 6.25 mg/kg twice weekly for 4 weeks)	Glucose-6-phosphatase translocase mRNA levels in liver, reduction compared to saline ([1]; 12.5 mg/kg twice weekly for 4 weeks)
CCTTCCCTGAAGGTTCCTCC (chemistry not given here) [ISIS 141923, scrambled control oligonucleotide, negative control, reference compound]	approximately 1%	approximately 39 mg/g	–	–	–	–
CTGCTAGCCTCTGGATTTGA (chemistry not given here) [ISIS 116847, positive control oligonucleotide targeted to mouse PTEN, reference compound]	approximately 27%	approximately 30 mg/g	–	–	–	–
GCTCCATAGCGAGGACTCGA (chemistry not given here) [ISIS 148985]	approximately 21%	~37 mg/g	approximately 84%	84	–	–
TATACAAGTCGGTTTGCCCT (chemistry not given here) [ISIS 149008]	approximately 81%	approximately 38 mg/g	~65%	–	approximately 45%	approximately 69%
